Assay results reported in patent publication US5250673A, “2'-deoxy-5-substituted uridine derivatives” (priority 1983, dated 1993).
Read-outs that look alike come from different tables or passages of the source.

What was measured:
Assay type in all cases: in vivo, mouse
Sarcoma 180 [1] = experiment: antitumor activity: 50% inhibition of tumor enhancement, Sarcoma 180 transplanted in mice; settings: oral, once a day, 7 days, male ICR/JCL mice, tumor weight day 10
Procedure: (a) Method for determining of antitumor activity value
5×10^6 Cells of mouse-transplantable tumor Sarcoma 180 were transplanted to each male ICR/JCL-strain mouse (having a weight of 27 to 30 g) subcutaneously at the back. Each test compound dissolved or suspended in 0.1% Tween 80^(*) - 0.5% CMC solution was orally administered to various test groups each consisting of 7 mice once a day for 7 consecutive days from the next day of tumor transplanting, in an amount of 1.0 ml of solution or suspension per 100 g weight per day. As to a control group, the same Tween 80-CMC solution containing no test compound was orally administered once a day for 7 consecutive days in an amount of 1.0 ml per 100 g weight per day. (*) (A trademark for a series of surface which is a polyoxyethylene derivative of fatty acid partial ester of sorbitol anhydride, manufactured by I.C.I. U.S., Inc.)
On the tenth day from the tumor transplanting, an average tumor weight for each administration level of each test compound was determined. This weight was compared with an average tumor weight in control group, and the ratio of tumor enhancement inhibition at each administration level of each test compound compared with control group was calculated. From these calculations, the administration level of each test compound at which the ratio of tumor enhancement inhibition become 50% was obtained and the level (amount) was taken as the antitumor activity value of each compound.

Sarcoma 180 [2] = experiment: calculation of therapeutic index (B)/(A), Sarcoma 180 mice; parameters: key: C = toxicity value (B) / antitumor activity value (A); settings: oral, once a day, 7 days
Procedure: (c) Calculation of therapeutic index
By the use of the antitumor activity value (hereinafter referred to as A) and the toxicity value (hereinafter referred to as B) of each compound, which were obtained in the above items (a) and (b), respectively, therapeutic index (hereinafter referred to as C) was calculated in accordance with the following equation.
Therapeutic index (C)=^(B)(A)

[3] = toxicity value: 50% inhibition of weight increase of test animal (Sarcoma 180 tumor-transplanted mice); settings: mouse, sarcoma 180 bearing mice, oral, once a day, 7 days, male ICR/JCL mice, read-out: Toxicity value (B) Administration amount of test compound at which weight increase of test animal is inhibited by 50% compared with that of control group
Procedure: (b) Method for determining toxicity value
Hitherto, toxicity values of anti-malignant tumor agents have been calculated on the bases of LD50 of test animals, in most cases. […] Therefore, in the present test, accumulated toxicity, which well represents the toxicity of anti-malignant tumor agents, was focused on and, as an indication for sensitive detection of the accumulated toxicity, inhibition of weight increase of test animal was measured. That is, when antitumor activity value was determined in the above item (a), the weight of each mouse of each test groups for each test compounds was measured daily from the day of tumor transplanting, immediately before administration.
On the day of tumor weight measurement, the average net weight increase of each mouse of each test groups for each test compounds from the day of tumor transplanting was measured. These increases were compared with the average net weight increase of control group and the ratio of net weight increase of each test groups of each test compounds to that of control group was calculated. From these calculations, there was obtained an addition amount of each test compound at which weight increase is inhibited by 50% compared with that of control group, and that amount was taken as a toxicity value of each compound.

Row | Compound | Antitumor activity value (A) Administration amount of test compound at which tumor enhancement is inhibited by 50% compared with that of control group (Sarcoma 180 [1]; Table 1-a) [mg/kg/day] | Therapeutic index (C) = (B)/(A) (Sarcoma 180 [2]; Table 1-a) | TD50 at 240 h ([3]; Table 1-a) [mg/kg] | Antitumor activity value (A) Administration amount of test compound at which tumor enhancement is inhibited by 50% compared with that of control group (Sarcoma 180 [1]; Table 1-b) [mg/kg/day] | Therapeutic index (C) = (B)/(A) (Sarcoma 180 [2]; Table 1-b) | TD50 at 240 h ([3]; Table 1-b) [mg/kg] | Antitumor activity value (A) Administration amount of test compound at which tumor enhancement is inhibited by 50% compared with that of control group (Sarcoma 180 [1]; Table 1-c) [mg/kg/day] | TD50 at 240 h ([3]; Table 1-c) [mg/kg]
1 | O=c1[nH]c(=O)n([C@H]2C[C@H](O)[C@@H](COCc3ccc(Cl)cc3)O2)cc1C(F)(F)F [Compound 11] | 18 | 1.22 | 22 |  |  |  |  | 
2 | O=c1[nH]c(=O)n([C@H]2C[C@H](OCc3ccc(Cl)cc3)[C@@H](CO)O2)cc1C(F)(F)F [Compound 12] | 12 | 1.42 | 17 |  |  |  |  | 
3 | Cc1ccccc1COC[C@H]1O[C@@H](n2cc(C(F)(F)F)c(=O)[nH]c2=O)C[C@@H]1O [Compound 13, 2'-deoxy-5'-O-(2-methylbenzyl)-5-trifluoromethyluridine] | 48 | 1.35 | 65 |  |  |  |  | 
4 | Cc1ccccc1CO[C@H]1C[C@H](n2cc(C(F)(F)F)c(=O)[nH]c2=O)O[C@@H]1CO [Compound 14] | 40 | 1.43 | 57 |  |  |  |  | 
5 | Cc1cccc(COC[C@H]2O[C@@H](n3cc(C(F)(F)F)c(=O)[nH]c3=O)C[C@@H]2O)c1 [Compound 15, 2'-deoxy-5'-O-(3-methylbenzyl)-5-trifluoromethyluridine] | 24 | 1.71 | 41 |  |  |  |  | 
6 | Cc1cccc(CO[C@H]2C[C@H](n3cc(C(F)(F)F)c(=O)[nH]c3=O)O[C@@H]2CO)c1 [Compound 16, 2'-deoxy-3'-O-(3-methylbenzyl)-5trifluoromethyluridine] | 31 | 1.45 | 45 |  |  |  |  | 
7 | COc1ccc(COC[C@H]2O[C@@H](n3cc(C(F)(F)F)c(=O)[nH]c3=O)C[C@@H]2O)cc1 [Compound 17] | 45 | 1.13 | 51 |  |  |  |  | 
8 | COc1ccc(CO[C@H]2C[C@H](n3cc(C(F)(F)F)c(=O)[nH]c3=O)O[C@@H]2CO)cc1 [Compound 18, 2'-deoxy-3'-O-(4-methoxybenzyl)-5-trifluoromethyluridine] | 52 | 1.15 | 60 |  |  |  |  | 
9 | O=c1c(C(F)(F)F)cn([C@H]2C[C@H](O)[C@@H](COCc3ccccc3)O2)c(=O)n1C1CCCO1 (stereo partly shown) [Compound 21, 3-(2-tetrahydrofuranyl)-2'-deoxy-5'-O-benzyl-5-trifluoromethyluridine] | 22 | 1.36 | 30 |  |  |  |  | 
10 | CCOC[C@H]1O[C@@H](n2cc(C(F)(F)F)c(=O)n(C(=O)c3ccccc3)c2=O)C[C@@H]1O [Compound 24, 3-benzoyl-2'-deoxy-5'-O-ethyl-5-trifluoromethyluridine] |  |  |  | 26 | 1.38 | 36 |  | 
11 | CCO[C@H]1C[C@H](n2cc(C(F)(F)F)c(=O)n(C(=O)c3ccccc3)c2=O)O[C@@H]1CO [Compound 25, 3-benzoyl-2'-deoxy-3'-O-ethyl-5-trifluoromethyluridine] |  |  |  | 38 | 0.82 | 31 |  | 
12 | CCCCOC[C@H]1O[C@@H](n2cc(C(F)(F)F)c(=O)n(C(=O)c3ccccc3)c2=O)C[C@@H]1O [Compound 26] |  |  |  | 50 | 1.48 | 74 |  | 
13 | O=C(c1ccccc1)n1c(=O)c(C(F)(F)F)cn([C@H]2C[C@H](O)[C@@H](COCc3ccccc3)O2)c1=O [Compound 27, 3-benzoyl-5'-O-benzyl-2'-deoxy-5-trifluoromethyluridine] |  |  |  | 25 | 1.40 | 35 |  | 
14 | O=C(c1ccccc1)n1c(=O)c(C(F)(F)F)cn([C@H]2C[C@H](OCc3ccccc3)[C@@H](CO)O2)c1=O [Compound 28, 3-benzoyl-3'-O-benzyl-2'-deoxy-5-trifluoromethyluridine] |  |  |  | 25 | 1.40 | 35 |  | 
15 | COC[C@H]1O[C@@H](n2cc(C(F)(F)F)c(=O)[nH]c2=O)C[C@@H]1O [Compound 29] |  |  |  | 48 | 1.50 | 72 |  | 
16 | CCOC[C@H]1O[C@@H](n2cc(C(F)(F)F)c(=O)[nH]c2=O)C[C@@H]1O [Compound 30, 2'-deoxy-5'-O-ethyl-5-trifluoromethyluridine] |  |  |  | 19 | 1.68 | 32 |  | 
17 | CCO[C@H]1C[C@H](n2cc(C(F)(F)F)c(=O)[nH]c2=O)O[C@@H]1CO [Compound 31, 2'-deoxy-3'-O-ethyl-5-trifluoromethyluridine] |  |  |  | 20 | 1.50 | 30 |  | 
18 | O=c1[nH]c(=O)n([C@H]2C[C@H](O)[C@@H](COCc3ccccc3)O2)cc1C(F)(F)F [Compound 32, 2'-deoxy-5'-O-benzyl-5-trifluoromethyluridine] |  |  |  | 19 | 1.79 | 34 |  | 
19 | O=c1[nH]c(=O)n([C@H]2C[C@H](OCc3ccccc3)[C@@H](CO)O2)cc1C(F)(F)F [Compound 33, 3'-O-benzyl-2'-deoxy-5-trifluoromethyluridine] |  |  |  | 17 |  | 32 |  | 
20 | O=c1[nH]c(=O)n([C@H]2C[C@H](OCc3ccccc3)[C@@H](CO)O2)cc1F [Compound 40, 2'-deoxy-3'-O-benzyl-5-fluorouridine] |  |  |  |  |  |  | 17 | 35
